Among the data in patent publication US20120220563A1, “Substituted piperidines” (BAYER PHARMA AKTIENGESELLSCHAFT, priority 2009, published 2012) are IC50 values, retold here.

This assay deals with platelet aggregation in platelet-rich plasma triggered by thrombin receptor agonist (TRAP6, SFLLRN). The assay is described as follows: Platelet aggregation in plasma (TRAP6/SFLLRN-triggered, turbidimetry according to Born). Format: cell-based. Conditions: Homo sapiens, 10 min, platelet-rich plasma of healthy volunteers, 10 min at 37° C. with test substance, concentration which inhibits aggregation by 50%. On the procedure: To determine the platelet aggregation, blood from healthy volunteers of both genders, who had not received any platelet aggregation-influencing medication for the last ten days, is used. The blood is taken up into monovettes (Sarstedt, Nümbrecht, Germany) which contain, as anticoagulant, sodium citrate 3.8% (1 part of citrate+9 parts of blood). To obtain platelet-rich plasma, the citrated whole blood is centrifuged at 140 g for 20 min
For the aggregation measurements, aliquots of the platelet-rich plasma with increasing concentrations of test substance are incubated at 37° C. for 10 min. Subsequently, aggregation is triggered by addition of a thrombin receptor agonist (TRAP6, SFLLRN) in an aggregometer and determined at 37° C. by means of the turbidimetry method according to Born (Born, G. V. R., Cross M. J., The Aggregation of Blood Platelets; J. Physiol. 1963, 168, 178-195). The SFLLRN concentration leading to maximum aggregation is, if appropriate, determined individually for each donor.
To calculate the inhibitory effect, the maximum increase of light transmission (amplitude of the aggregation curve in %) is determined within 5 minutes after addition of the agonist in the presence and absence of test substance, and the inhibition is calculated. The inhibition curves are used to calculate the concentration which inhibits aggregation by 50%.

The term IC50 denotes the concentration that inhibits the measured activity by half. A low value points to greater potency. On to `CCOc1noc(C2CC(c3ccc(CC)c(F)c3)CN(C(=O)N3CCS(=O)(=O)CC3)C2)n1` (racemic) [Example 101, (1,1-Dioxidothiomorpholin-4-yl)[3-(3-ethoxy-1,2,4-oxadiazol-5-yl)-5-(4-ethyl-3-fluorophenyl)-piperidin-1-yl]methanone], for which the IC50 was 0.3 nM. `CCN(CC)c1noc(C2CC(c3ccc(C(F)(F)F)cc3)CN(C(=O)N3CCOCC3)C2)n1` (single isomer, unassigned) [Example 6, {3-[3-(Diethylamino)-1,2,4-oxadiazol-5-yl]-5-[4-(trifluoromethyl)phenyl]piperidin-1-yl}-(morpholin-4-yl)methanone] yielded an IC50 of 0.67 nM. Compared with the last molecule, the IC50 is about 2.2-fold higher.

Consider `CCc1ccc(C2CC(c3nc(OCCOC)no3)CN(C(=O)N3CCS(=O)(=O)CC3)C2)cc1` (single isomer, unassigned) [Example 63, (1,1-Dioxidothiomorpholin-4-yl){3-(4-ethylphenyl)-5-[3-(2-methoxyethoxy)-1,2,4-oxadiazol-5-yl]-piperidin-1-yl}-methanone], for which the IC50 was 0.24 nM.

`CCOc1noc(C2CC(c3ccc(CC(F)(F)F)cc3)CN(C(=O)N3CC[S+]([O-])CC3)C2)n1` (single isomer, unassigned) [Example 66, {3-(3-Ethoxy-1,2,4-oxadiazol-5-yl)-5-[4-(2,2,2-trifluoroethyl)phenyl]piperidin-1-yl}(1-oxidothio-morpholin-4-yl)methanone] showed an IC50 of 0.54 nM. Take `CCOc1noc(C2CC(c3ccc(CC(F)(F)F)cc3)CN(C(=O)N3CCS(=O)(=O)CC3)C2)n1` (single isomer, unassigned) [Example 69, (1,1-Dioxidothiomorpholin-4-yl) {3-(3-ethoxy-1,2,4-oxadiazol-5-yl)-5-[4-(2,2,2-trifluoroethyl)-phenyl]piperidin-1-yl}methanone]: the half-inhibitory concentration (IC50) is 0.25 nM. Against the preceding molecule, the IC50 is about 2.2-fold lower.
